# Test results: publication PMC10994248 (The Oncologist, 2024)
# Test: Phase I safety and tolerability (TEAEs, DLTs, MTD, DRDE) in patients with advanced solid tumors
# Type: in vivo, human
# Description: This 2-part, open-label, phase I study was conducted at the MD Anderson Cancer Center in Texas, USA and the Cancer Hospital Chinese Academy of Medical Sciences in Beijing, China. […] This was followed by a dose-expansion phase, the primary objective of which was to confirm the safety and tolerability of tinengotinib at the DRDE. Secondary objectives were to characterize the pharmacokinetics and preliminary efficacy of tinengotinib.
# Dose escalation was guided by an adaptive Bayesian logistic regression model using the Escalation with Overdose Control principle.[6],[7] Study data (including DLTs, grade 2 adverse events during cycle 1, and pharmacokinetic data) were reviewed by the sponsor and trial investigators at each dose level and used to guide dose-escalation decisions. MTD was based on the Bayesian model, but with consideration given to available safety and tolerability data. DRDE was based on an evaluation of all available data (safety, clinical activity, and pharmacokinetics).
# After determination of the DRDE, the dose-expansion phase was opened to further characterize safety and pharmacokinetics, and to assess preliminary efficacy.
# Routine safety assessments of adverse events, laboratory tests (hematology, coagulation, biochemistry, and urinalysis), vital signs, and 12-lead electrocardiograms were performed. Adverse events were graded according to the National Cancer Institute Common Terminology Criteria for Adverse Events (CTCAE), version 5.0.
# [1] = dose escalation (n = 40), any grade
# [2] = dose escalation (n = 40), grade ≥3
# [3] = dose expansion (12 mg, n = 8), any grade
# [4] = dose expansion (12 mg, n = 8), grade ≥3
substance,measurement,setting,value
tinengotinib,Patients with study drug-related TEAE leading to study drug permanent discontinuation,dose escalation 12 mg (n=12),1 (8.3) n (%)
same,Patients with study drug-related grade ≥3 TEAE,dose escalation 12 mg (n=12),6 (50.0) n (%)
same,Patients with study drug-related treatment-emergent SAE,dose escalation 12 mg (n=12),0 n (%)
same,Patients with treatment-emergent SAE,dose escalation 12 mg (n=12),5 (41.7) n (%)
same,Patients with AE,dose escalation 15 mg (n=6),6 (100) n (%)
same,Patients with TEAE,dose escalation 15 mg (n=6),6 (100) n (%)
same,Patients with TEAE leading to death,dose escalation 15 mg (n=6),0 n (%)
same,Patients with TEAE leading to dose adjustment/temporary interruption,dose escalation 15 mg (n=6),4 (66.7) n (%)
same,Patients with TEAE leading to study drug permanent discontinuation,dose escalation 15 mg (n=6),3 (50.0) n (%)
same,Patients with grade ≥3 TEAE,dose escalation 15 mg (n=6),5 (83.3) n (%)
same,Patients with study drug-related TEAE,dose escalation 15 mg (n=6),5 (83.3) n (%)
same,Patients with study drug-related TEAE leading to dose adjustment/temporary interruption,dose escalation 15 mg (n=6),3 (50.0) n (%)
same,Patients with study drug-related TEAE leading to study drug permanent discontinuation,dose escalation 15 mg (n=6),0 n (%)
same,Patients with study drug-related grade ≥3 TEAE,dose escalation 15 mg (n=6),3 (50.0) n (%)
same,Patients with study drug-related treatment-emergent SAE,dose escalation 15 mg (n=6),1 (16.7) n (%)
same,Patients with treatment-emergent SAE,dose escalation 15 mg (n=6),4 (66.7) n (%)
same,Study drug-related TEAE,[1],33 (82.5) No. (%)
same,Study drug-related TEAE: Alanine aminotransferase increased,[1],4 (10.0) No. (%)
same,Study drug-related TEAE: Aspartate aminotransferase increased,[1],4 (10.0) No. (%)
same,Study drug-related TEAE: Blood thyroid-stimulating hormone increased,[1],4 (10.0) No. (%)
same,Study drug-related TEAE: Decreased appetite,[1],5 (12.5) No. (%)
same,Study drug-related TEAE: Diarrhea,[1],15 (37.5) No. (%)
same,Study drug-related TEAE: Dry mouth,[1],5 (12.5) No. (%)
same,Study drug-related TEAE: Hypertension,[1],19 (47.5) No. (%)
same,Study drug-related TEAE: Myalgia,[1],5 (12.5) No. (%)
same,Study drug-related TEAE: Nausea,[1],11 (27.5) No. (%)
same,Study drug-related TEAE: Palmar-plantar erythrodysesthesia syndrome,[1],10 (25.0) No. (%)
same,Study drug-related TEAE: Proteinuria,[1],6 (15.0) No. (%)
same,Study drug-related TEAE: Stomatitis,[1],9 (22.5) No. (%)
same,Study drug-related TEAE: Vomiting,[1],10 (25.0) No. (%)
same,Study drug-related serious TEAE,[1],5 (12.5) No. (%)
same,Study drug-related TEAE,[2],16 (40.0) No. (%)
same,Study drug-related TEAE: Alanine aminotransferase increased,[2],0 No. (%)
same,Study drug-related TEAE: Aspartate aminotransferase increased,[2],0 No. (%)
same,Study drug-related TEAE: Blood thyroid-stimulating hormone increased,[2],0 No. (%)
same,Study drug-related TEAE: Decreased appetite,[2],0 No. (%)
same,Study drug-related TEAE: Diarrhea,[2],1 (2.5) No. (%)
same,Study drug-related TEAE: Dry mouth,[2],0 No. (%)
same,Study drug-related TEAE: Hypertension,[2],9 (22.5) No. (%)
same,Study drug-related TEAE: Myalgia,[2],0 No. (%)
same,Study drug-related TEAE: Nausea,[2],1 (2.5) No. (%)
same,Study drug-related TEAE: Palmar-plantar erythrodysesthesia syndrome,[2],1 (2.5) No. (%)
same,Study drug-related TEAE: Proteinuria,[2],0 No. (%)
same,Study drug-related TEAE: Stomatitis,[2],2 (5.0) No. (%)
same,Study drug-related TEAE: Vomiting,[2],0 No. (%)
same,Study drug-related serious TEAE,[2],0 No. (%)
same,Patients with AE,dose escalation total (n=40),39 (97.5) n (%)
same,Patients with TEAE,dose escalation total (n=40),39 (97.5) n (%)
same,Patients with TEAE leading to death,dose escalation total (n=40),0 n (%)
same,Patients with TEAE leading to dose adjustment/temporary interruption,dose escalation total (n=40),24 (60.0) n (%)
same,Patients with TEAE leading to study drug permanent discontinuation,dose escalation total (n=40),12 (30.0) n (%)
same,Patients with grade ≥3 TEAE,dose escalation total (n=40),26 (65.0) n (%)
same,Patients with study drug-related TEAE,dose escalation total (n=40),33 (82.5) n (%)
same,Patients with study drug-related TEAE leading to dose adjustment/temporary interruption,dose escalation total (n=40),18 (45.0) n (%)
same,Patients with study drug-related TEAE leading to study drug permanent discontinuation,dose escalation total (n=40),6 (15.0) n (%)
same,Patients with study drug-related grade ≥3 TEAE,dose escalation total (n=40),16 (40.0) n (%)
same,Patients with study drug-related treatment-emergent SAE,dose escalation total (n=40),5 (12.5) n (%)
same,Patients with treatment-emergent SAE,dose escalation total (n=40),18 (45.0) n (%)
same,Patients with AE,dose expansion 12 mg (n=8),8 (100) n (%)
same,Patients with TEAE,dose expansion 12 mg (n=8),8 (100) n (%)
same,Patients with TEAE leading to death,dose expansion 12 mg (n=8),0 n (%)
same,Patients with TEAE leading to dose adjustment/temporary interruption,dose expansion 12 mg (n=8),7 (87.5) n (%)
same,Patients with TEAE leading to study drug permanent discontinuation,dose expansion 12 mg (n=8),0 n (%)
same,Patients with grade ≥3 TEAE,dose expansion 12 mg (n=8),5 (62.5) n (%)
same,Patients with study drug-related TEAE,dose expansion 12 mg (n=8),8 (100) n (%)
same,Patients with study drug-related TEAE leading to dose adjustment/temporary interruption,dose expansion 12 mg (n=8),7 (87.5) n (%)
same,Patients with study drug-related TEAE leading to study drug permanent discontinuation,dose expansion 12 mg (n=8),0 n (%)
same,Patients with study drug-related grade ≥3 TEAE,dose expansion 12 mg (n=8),5 (62.5) n (%)
same,Patients with study drug-related treatment-emergent SAE,dose expansion 12 mg (n=8),3 (37.5) n (%)
same,Patients with treatment-emergent SAE,dose expansion 12 mg (n=8),4 (50.0) n (%)
same,Study drug-related TEAE,[3],8 (100) No. (%)
same,Study drug-related TEAE: Alanine aminotransferase increased,[3],1 (12.5) No. (%)
same,Study drug-related TEAE: Aspartate aminotransferase increased,[3],1 (12.5) No. (%)
same,Study drug-related TEAE: Blood thyroid-stimulating hormone increased,[3],3 (37.5) No. (%)
same,Study drug-related TEAE: Decreased appetite,[3],2 (25.0) No. (%)
same,Study drug-related TEAE: Diarrhea,[3],1 (12.5) No. (%)
same,Study drug-related TEAE: Dry mouth,[3],0 No. (%)
same,Study drug-related TEAE: Hypertension,[3],5 (62.5) No. (%)
same,Study drug-related TEAE: Myalgia,[3],0 No. (%)
same,Study drug-related TEAE: Nausea,[3],0 No. (%)
same,Study drug-related TEAE: Palmar-plantar erythrodysesthesia syndrome,[3],4 (50.0) No. (%)
same,Study drug-related TEAE: Proteinuria,[3],0 No. (%)
same,Study drug-related TEAE: Stomatitis,[3],5 (62.5) No. (%)
same,Study drug-related TEAE: Vomiting,[3],0 No. (%)
same,Study drug-related TEAE,[4],5 (62.5) No. (%)
same,Study drug-related TEAE: Alanine aminotransferase increased,[4],0 No. (%)
same,Study drug-related TEAE: Aspartate aminotransferase increased,[4],0 No. (%)
same,Study drug-related TEAE: Blood thyroid-stimulating hormone increased,[4],0 No. (%)
same,Study drug-related TEAE: Decreased appetite,[4],0 No. (%)
same,Study drug-related TEAE: Diarrhea,[4],0 No. (%)
same,Study drug-related TEAE: Dry mouth,[4],0 No. (%)
same,Study drug-related TEAE: Hypertension,[4],4 (50.0) No. (%)
same,Study drug-related TEAE: Myalgia,[4],0 No. (%)
same,Study drug-related TEAE: Nausea,[4],0 No. (%)
same,Study drug-related TEAE: Palmar-plantar erythrodysesthesia syndrome,[4],0 No. (%)
same,Study drug-related TEAE: Proteinuria,[4],0 No. (%)
same,Study drug-related TEAE: Stomatitis,[4],0 No. (%)
same,Study drug-related TEAE: Vomiting,[4],0 No. (%)
same,Study drug-related serious TEAE,[4],0 No. (%)
same,Dose recommended for dose expansion (DRDE),"orally once daily, 28-day cycle",12 mg
same,Study drug-related TEAE,"total (n = 48), any grade",41 (85.4) No. (%)
same,Study drug-related TEAE: Alanine aminotransferase increased,"total (n = 48), any grade",5 (10.4) No. (%)
same,Study drug-related TEAE: Aspartate aminotransferase increased,"total (n = 48), any grade",5 (10.4) No. (%)
same,Study drug-related TEAE: Blood thyroid-stimulating hormone increased,"total (n = 48), any grade",7 (14.6) No. (%)
same,Study drug-related TEAE: Decreased appetite,"total (n = 48), any grade",7 (14.6) No. (%)
same,Study drug-related TEAE: Diarrhea,"total (n = 48), any grade",16 (33.3) No. (%)
same,Study drug-related TEAE: Dry mouth,"total (n = 48), any grade",5 (10.4) No. (%)
same,Study drug-related TEAE: Hypertension,"total (n = 48), any grade",24 (50.0) No. (%)
same,Study drug-related TEAE: Myalgia,"total (n = 48), any grade",5 (10.4) No. (%)
same,Study drug-related TEAE: Nausea,"total (n = 48), any grade",11 (22.9) No. (%)
same,Study drug-related TEAE: Palmar-plantar erythrodysesthesia syndrome,"total (n = 48), any grade",14 (29.2) No. (%)
same,Study drug-related TEAE: Proteinuria,"total (n = 48), any grade",6 (12.5) No. (%)
same,Study drug-related TEAE: Stomatitis,"total (n = 48), any grade",14 (29.2) No. (%)
same,Study drug-related TEAE: Vomiting,"total (n = 48), any grade",10 (20.8) No. (%)
same,Study drug-related TEAE,"total (n = 48), grade ≥3",21 (43.8) No. (%)
same,Study drug-related TEAE: Alanine aminotransferase increased,"total (n = 48), grade ≥3",0 No. (%)
same,Study drug-related TEAE: Aspartate aminotransferase increased,"total (n = 48), grade ≥3",0 No. (%)
same,Study drug-related TEAE: Blood thyroid-stimulating hormone increased,"total (n = 48), grade ≥3",0 No. (%)
same,Study drug-related TEAE: Decreased appetite,"total (n = 48), grade ≥3",0 No. (%)
same,Study drug-related TEAE: Diarrhea,"total (n = 48), grade ≥3",1 (2.1) No. (%)
same,Study drug-related TEAE: Dry mouth,"total (n = 48), grade ≥3",0 No. (%)
same,Study drug-related TEAE: Hypertension,"total (n = 48), grade ≥3",13 (27.1) No. (%)
same,Study drug-related TEAE: Myalgia,"total (n = 48), grade ≥3",0 No. (%)
same,Study drug-related TEAE: Nausea,"total (n = 48), grade ≥3",1 (2.1) No. (%)
same,Study drug-related TEAE: Palmar-plantar erythrodysesthesia syndrome,"total (n = 48), grade ≥3",1 (2.1) No. (%)
same,Study drug-related TEAE: Proteinuria,"total (n = 48), grade ≥3",0 No. (%)
same,Study drug-related TEAE: Stomatitis,"total (n = 48), grade ≥3",2 (4.2) No. (%)
same,Study drug-related TEAE: Vomiting,"total (n = 48), grade ≥3",0 No. (%)
same,Study drug-related serious TEAE,"total (n = 48), grade ≥3",0 No. (%)
same,Patients with AE,total (n=48),47 (97.9) n (%)
same,Patients with TEAE,total (n=48),47 (97.9) n (%)
same,Patients with TEAE leading to death,total (n=48),0 n (%)
same,Patients with TEAE leading to dose adjustment/temporary interruption,total (n=48),31 (64.6) n (%)
same,Patients with TEAE leading to study drug permanent discontinuation,total (n=48),12 (25.0) n (%)
same,Patients with grade ≥3 TEAE,total (n=48),31 (64.6) n (%)
same,Patients with study drug-related TEAE,total (n=48),41 (85.4) n (%)
same,Patients with study drug-related TEAE leading to dose adjustment/temporary interruption,total (n=48),25 (52.1) n (%)
same,Patients with study drug-related TEAE leading to study drug permanent discontinuation,total (n=48),6 (12.5) n (%)
same,Patients with study drug-related grade ≥3 TEAE,total (n=48),21 (43.8) n (%)
same,Patients with study drug-related treatment-emergent SAE,total (n=48),8 (16.7) n (%)
same,Patients with treatment-emergent SAE,total (n=48),22 (45.8) n (%)
